Earlier results in patent US11931369B1, “Compositions and methods for treating epilepsy” (POVIVA CORP, priority 2023, dated 2024).
Read-outs that look alike come from different tables or passages of the source.

C=C(C)[C@@H]1CCC(C)=C[C@H]1c1c(O)cc(CCCCC)cc1O [Cannabidiol, 2-[(1R,6R)-6-Isopropenyl-3-methylcyclohex-2-en-1-yl]-5-pentylbenzene-1,3-diol]
Plasma concentration on Day 22 at target CBD dose, 5 hours, Mean (5 mg/kg/day (N = 10)): 72.1 ng/mL
Plasma concentration on Day 22 at target CBD dose, Pre-dose, Mean (5 mg/kg/day (N = 10)): 23.0 ng/mL
Plasma concentration on Day 22 at target CBD dose, […], Mean (5 mg/kg/day (N = 10)): 130 ng/mL
Plasma concentration on Day 1 at starting CBD dose, 5 hours, Mean (5 mg/kg/day group (N = 10)): 10.0 ng/mL
Plasma concentration on Day 1 at starting CBD dose, Pre-dose, Mean (5 mg/kg/day group (N = 10)): 0 ng/mL
Plasma concentration on Day 1 at starting CBD dose, […], Mean (5 mg/kg/day group (N = 10)): 37.6 ng/mL
Plasma concentration on Day 22 at target CBD dose, 5 hours, Mean (10 mg/kg/day (N = 8)): 288 ng/mL
Plasma concentration on Day 22 at target CBD dose, Pre-dose, Mean (10 mg/kg/day (N = 8)): 62.1 ng/mL
Plasma concentration on Day 22 at target CBD dose, […], Mean (10 mg/kg/day (N = 8)): 242 ng/mL
Plasma concentration on Day 1 at starting CBD dose, 5 hours, Mean (10 mg/kg/day group (N = 8)): 11.3 ng/mL
Plasma concentration on Day 1 at starting CBD dose, Pre-dose, Mean (10 mg/kg/day group (N = 8)): 0 ng/mL
Plasma concentration on Day 1 at starting CBD dose, […], Mean (10 mg/kg/day group (N = 8)): 34.4 ng/mL
Plasma concentration on Day 22 at target CBD dose, 5 hours, Mean (20 mg/kg/day (N = 9)): 308 ng/mL
Plasma concentration on Day 22 at target CBD dose, Pre-dose, Mean (20 mg/kg/day (N = 9)): 121 ng/mL
Plasma concentration on Day 22 at target CBD dose, […], Mean (20 mg/kg/day (N = 9)): 380 ng/mL
Plasma concentration on Day 1 at starting CBD dose, 5 hours, Mean (20 mg/kg/day group (N = 9)): 25.3 ng/mL
Plasma concentration on Day 1 at starting CBD dose, Pre-dose, Mean (20 mg/kg/day group (N = 9)): 0 ng/mL
Plasma concentration on Day 1 at starting CBD dose, […], Mean (20 mg/kg/day group (N = 9)): 29.3 ng/mL
